From patent US6309630A, “Non-steroidal anti-inflammatory ophthalmic suspensions” (Insite Vision Incorporated, priority 1994, dated 2001)

Experiment: Percent Diclofenac Sodium in Suspension (dependence on concentration and pH)
Type: physicochemical
Details: below a pH of about 6.8; formulation containing 1% diclofenac sodium
Text: The solubility of non-steroidal anti-inflammatory agents is pH dependent, i.e., normally the higher the pH, the higher the solubility of the drug in the formulation. […] Formulating the composition as a suspension rather than as a solution inhibits immediate contact between the drug and tissues of the eye and in that way reduces the stinging and burning sensation experienced when a solution of such drugs places all of the drug in immediate contact with the ocular tissues.
Thus, by providing at least some of the diclofenac in suspension, via pH control, lower transient burning and stinging would be observed when administered to patients.

In the case of O=C(O)Cc1ccccc1Nc1c(Cl)cccc1Cl [Diclofenac Sodium, sodium ortho-(2,6-dichlorophenyl)aminophenylacetate acid], the “diclofenac in suspension (in words)” value was “virtually all of the diclofenac in suspension”.
